Measured values: patent US8748480B2, “Methods for treating opioid tolerance” (priority 2005, dated 2014)

Experiments:
Gβ1γ2 Lys57Ala = molecular target: T1, Gβ1γ2 Lys57Ala (Rattus norvegicus, UniProt P54311, K57A); assay: Phage ELISA, b-βγ mutant Lys57Ala; assay type: binding; settings: Gβ1γ2 Lys57Ala; phage displaying SIGK peptide
T1 construct: made in house; host or cells: Sf9 insect cells (baculovirus)
Source text: (§1) Wild-type Gβ1 and Gβ1 mutants were made in the baculovirus vector PDW464 which encodes a biotinylation site at a lysine upstream of the amino terminus of Gβ1 (Goubaeva, et al. (2003) supra). Mutants were generated by overlap extension PCR using standard protocols. The wild-type and mutant Gβ1 constructs consisted of a 20 amino acid biotin acceptor peptide (BAP) sequence fused in-frame with the amino-terminus of rat Gβ1 subunit. When coexpressed with biotin holoenzyme synthetase (BirA) in Sf9 cells, the Gβ1 subunit becomes covalently biotinylated in vivo at the Specific lysine acceptor residue in the BAP. Using this approach, 1-2 mg protein of purified protein can be obtained per liter of Sf9 insect cells. As 45 ng of protein is used in the phage ELISA assay, a single purification is sufficient for 10,000 to 30,000 binding assays.
(§2) Phage ELISA assays used to assess peptide binding to wild-type and mutant b-βγ were performed according to standard methods (Smrcka and Scott (2002) Methods Enzymol. 344:557-76). Briefly, 1 μg streptavidin was immobilized in the well of a […] overnight at 4° C. The wells were blocked with 100 μL of 2% bovine serum albumin (BSA) in Tris-buffered saline (TBS) for 1 hour at 4° C. followed by three washes of 1×TBS/0.5% TWEEN®. Forty μL of 25 nM bGβ1γ2 in TBS/0.5% TWEEN® was added to each well and incubated at 4° C. for 1.5 hour. The wells were washed, followed by the addition of 1×10^6 to 1×10^10 phage particles and incubated at 4° C. for 3 hours. The wells were then washed six times with TBS/0.5% TWEEN® followed by addition of 40 μL of 1:5000 dilution of anti-M13 antibody (Pharmacia, Uppsala, Sweden) and incubated at room temperature for 1 hour. The wells were washed, followed by the addition of 40 μL of (2,2′-Azino-bis(3-ethylbenzthiazoline)-6-sulfonic acid (ABTS) and the colorimetric reaction was monitored at 405 nm. Non-specific binding was subtracted for each reading.
(§3) Both assays were then carried out with Gβ1γ2 heterodimers containing mutations in the Gβ1 subunit.
(§4) The nine peptides were selected to represent the different consensus groups of peptides previously identified (See Scott et al. (2001) supra; Table 9) and to compare binding characteristics within and between consensus groups. […] As disclosed herein, the binding signal obtained in the ELISA assay was correlated to a loss in affinity by comparing the results to behavior of the peptide in a solution based assay. […] For the purposes of present disclosure, any substitution that decreased the binding to less than 20% of the wild-type binding was considered to be a critical binding contact for that peptide.

Gβ1γ2 His62Ala = molecular target: T2, Gβ1γ2 His62Ala (Rattus norvegicus, UniProt P54311, H62A); assay: Phage ELISA, b-βγ mutant His62Ala; assay type: binding; settings: phage displaying SIGK peptide
T2 construct: made in house; host or cells: Sf9 insect cells (baculovirus)
Source text: as §1
(§5) Phage ELISA assays used to assess peptide binding to wild-type and mutant b-βγ were performed according to standard methods (Smrcka and Scott (2002) Methods Enzymol. 344:557-76). Briefly, 1 μg streptavidin was immobilized in the well of a 96-six well plate overnight at 4° C. […] The wells were washed, followed by the addition of 40 μL of (2,2′-Azino-bis(3-ethylbenzthiazoline)-6-sulfonic acid (ABTS) and the colorimetric reaction was monitored at 405 nm. Non-specific binding was subtracted for each reading. […]

Gβ1γ2 Trp99Ala = molecular target: T3, Gβ1γ2 Trp99Ala (Rattus norvegicus, UniProt P54311, W99A); assay: Phage ELISA, b-βγ mutant Trp99Ala; assay type: binding
T3 construct: made in house; host or cells: Sf9 insect cells (baculovirus)
Source text: as §1, §2, §3, §4

Gβ1γ2 Met101Ala = molecular target: T4, Gβ1γ2 Met101Ala (Rattus norvegicus, UniProt P54311, M101A); assay: Phage ELISA, b-βγ mutant Met101Ala; assay type: binding; settings: Gβ1γ2 Met101Ala; phage displaying SIGK peptide
T4 construct: made in house; host or cells: Sf9 insect cells (baculovirus)
Source text: as §1, §2, §3, §4

Gβ1γ2 Leu117Ala = molecular target: T5, Gβ1γ2 Leu117Ala (Rattus norvegicus, UniProt P54311, L117A); assay: Phage ELISA, b-βγ mutant Leu117Ala; assay type: binding; settings: Gβ1γ2 Leu117Ala; phage displaying SIGK peptide
T5 construct: made in house; host or cells: Sf9 insect cells (baculovirus)
Source text: as §1, §2, §3, §4

Gβ1γ2 Tyr145Ala = molecular target: T6, Gβ1γ2 Tyr145Ala (Rattus norvegicus, UniProt P54311, Y145A); assay: Phage ELISA, b-βγ mutant Tyr145Ala; assay type: binding; settings: Gβ1γ2 Tyr145Ala; phage displaying SIGK peptide
T6 construct: made in house; host or cells: Sf9 insect cells (baculovirus)
Source text: as §1, §2, §3, §4

Gβ1γ2 Met188Ala = molecular target: T7, Gβ1γ2 Met188Ala (Rattus norvegicus, UniProt P54311, M188A); assay: Phage ELISA, b-βγ mutant Met188Ala; assay type: binding; settings: Gβ1γ2 Met188Ala; phage displaying SIGK peptide
T7 construct: made in house; host or cells: Sf9 insect cells (baculovirus)
Source text: as §1, §2, §3, §4

Gβ1γ2 Asp246Ser = molecular target: T8, Gβ1γ2 Asp246Ser (Rattus norvegicus, UniProt P54311, D246S); assay: Phage ELISA, b-βγ mutant Asp246Ser; assay type: binding; settings: Gβ1γ2 Asp246Ser; phage displaying SIGK peptide
T8 construct: made in house; host or cells: Sf9 insect cells (baculovirus)
Source text: as §1, §2, §3, §4

Gβ1γ2 Phe292Ala = molecular target: T9, Gβ1γ2 Phe292Ala (Rattus norvegicus, UniProt P54311, F292A); assay: Phage ELISA, b-βγ mutant Phe292Ala; assay type: binding; settings: phage displaying SIGK peptide
T9 construct: made in house; host or cells: Sf9 insect cells (baculovirus)
Source text: as §1, §5

Gβ1γ2 His311Ala = molecular target: T10, Gβ1γ2 His311Ala (Rattus norvegicus, UniProt P54311, H311A); assay: Phage ELISA, b-βγ mutant His311Ala; assay type: binding; settings: Gβ1γ2 His311Ala; phage displaying SIGK peptide
T10 construct: made in house; host or cells: Sf9 insect cells (baculovirus)
Source text: as §1, §2, §3, §4

Gβ1γ2 Arg314Ala = molecular target: T11, Gβ1γ2 Arg314Ala (Rattus norvegicus, UniProt P54311, R314A); assay: Phage ELISA, b-βγ mutant Arg314Ala; assay type: binding; settings: Gβ1γ2 Arg314Ala; phage displaying SIGK peptide
T11 construct: made in house; host or cells: Sf9 insect cells (baculovirus)
Source text: as §1, §2, §3, §4

Gβ1γ2 Trp332Ala = molecular target: T12, Gβ1γ2 Trp332Ala (Rattus norvegicus, UniProt P54311, W332A); assay: Phage ELISA, b-βγ mutant Trp332Ala; assay type: binding; settings: Gβ1γ2 Trp332Ala; phage displaying SIGK peptide
T12 construct: made in house; host or cells: Sf9 insect cells (baculovirus)
Source text: as §1, §2, §3, §4

[1] = molecular target: T13, wild-type b-Gβ1γ2 (Fαi1 binding) (Rattus norvegicus, UniProt P54311); assay: Flow cytometry competition for FITC-Gαi1 binding to immobilized wild-type b-βγ; settings: Log [SIGK] M −7
T13 construct: made in house; host or cells: Sf9 insect cells (baculovirus) for b-βγ
Source text: as §1, with “BAP.” for “BAP. Using this approach, 1-2 mg protein of purified protein can be obtained per liter of Sf9 insect cells. As 45 ng of protein is used in the phage ELISA assay, a single purification is sufficient for 10,000 to 30,000 binding assays.”
(§6) Blocking of Gαi•Gβ1γ2 binding was assessed by simultaneously adding 200 pM FITC-Gαi with or without SICK to 50 pM immobilized b-βγ and measuring the amount of FITC-Gαi bound to the beads by flow cytometry according to standard methods (Ghosh, et al. (2003) supra; Sarvazyan, et al. (1998) J. Biol. Chem. 273:7934-40).
(§7) Fluorescein-labeled Gαi1 (Fαi1) was prepared in accordance with standard methods (Sarvazyan, et al. (1998) supra). Assays were used to determine peptide effects on Gα-Gβγ interactions included competition and dissociation assays (Ghosh, et al. (2003) supra). […] The bead-associated fluorescence was then recorded in a BD Biosciences FACSCALIBUR™ flow cytometer. Data was corrected for background fluorescence and fit with a sigmoid dose response curve using Graph Pad Prism 4. […]

[2] = molecular target: T14, b-βγ Trp332Ala (Fαi1 binding) (Rattus norvegicus, UniProt P54311, W332A); assay: Flow cytometry competition for FITC-Gαi1 binding, b-βγ Trp332Ala; settings: Log [SIGK] M −7
T14 construct: made in house; host or cells: Sf9 insect cells (baculovirus)
Source text: as §1, with “BAP.” for “BAP. Using this approach, 1-2 mg protein of purified protein can be obtained per liter of Sf9 insect cells. As 45 ng of protein is used in the phage ELISA assay, a single purification is sufficient for 10,000 to 30,000 binding assays.”
as §6, §7

[3] = molecular target: T15, b-βγ Arg314Ala (Fαi1 binding) (Rattus norvegicus, UniProt P54311, R314A); assay: Flow cytometry competition for FITC-Gαi1 binding, b-βγ Arg314Ala; settings: Log [SIGK] M −7
T15 construct: made in house; host or cells: Sf9 insect cells (baculovirus)
Source text: as §1, with “BAP.” for “BAP. Using this approach, 1-2 mg protein of purified protein can be obtained per liter of Sf9 insect cells. As 45 ng of protein is used in the phage ELISA assay, a single purification is sufficient for 10,000 to 30,000 binding assays.”
as §6, §7

Structure (SMILES): CC[C@H](C)[C@H](NC(=O)[C@H](CCCCN)NC(=O)[C@H](Cc1ccccc1)NC(=O)[C@H](C)NC(=O)[C@H](CCCCN)NC(=O)CNC(=O)[C@@H](NC(=O)[C@@H](N)CO)[C@@H](C)CC)C(=O)N[C@@H](CC(C)C)C(=O)NCC(=O)N[C@@H](Cc1ccc(O)cc1)C(=O)N1CCC[C@H]1C(=O)N[C@@H](CC(=O)O)C(=O)N[C@@H](Cc1ccc(O)cc1)C(=O)N[C@@H](CC(=O)O)C(=O)O [SIGK]
- % of Wild-Type Signal (mean ± SD) (Gβ1γ2 Lys57Ala): 18.6 ± 4.6%
- % of Wild-Type Signal (mean ± SD) (Gβ1γ2 His62Ala): 111.2 ± 11.3%
- % of Wild-Type Signal (mean ± SD) (Gβ1γ2 Trp99Ala; Gβ1γ2 Trp99Ala, phage displaying SIGK peptide): 66.0 ± 7.7%
- decrease in affinity (Gβ1γ2 Trp99Ala; Trp99 mutation of Gβ1): 4 fold
- % of Wild-Type Signal (mean ± SD) (Gβ1γ2 Met101Ala): 32.2 ± 15.5%
- % of Wild-Type Signal (mean ± SD) (Gβ1γ2 Leu117Ala): 2.1 ± 2.4%
- % of Wild-Type Signal (mean ± SD) (Gβ1γ2 Tyr145Ala): 0.8 ± 0.9%
- % of Wild-Type Signal (mean ± SD) (Gβ1γ2 Met188Ala): 2.5 ± 3.7%
- % of Wild-Type Signal (mean ± SD) (Gβ1γ2 Asp246Ser): 66.5 ± 7.5%
- % of Wild-Type Signal (mean ± SD) (Gβ1γ2 Phe292Ala): 109.1 ± 21.4%
- % of Wild-Type Signal (mean ± SD) (Gβ1γ2 His311Ala): 94.3 ± 18.9%
- % of Wild-Type Signal (mean ± SD) (Gβ1γ2 Arg314Ala): 50.2 ± 5.0%
- % of Wild-Type Signal (mean ± SD) (Gβ1γ2 Trp332Ala): 7.1 ± 3.7%
- % Maximal Fα Binding (± SD) [1]: 100.0 ± 0.0%
- % Maximal Fα Binding (± SD) [2]: 100.0 ± 0.0%
- % Maximal Fα Binding (± SD) [3]: 100.0 ± 0.0%
